Assay results reported in US11786492B2, “Therapeutic agent for phosphodiesterase inhibition and its related disorders” (Novalead Pharma Inc, priority 2017, dated 2023).
Read-outs that look alike come from different tables or passages of the source.

Assays:
[1] = tested on: HaCaT cells; test: Keratinocyte (HaCaT) proliferation, MTT assay; format: cell-based, human; conditions: for IC50: Homo sapiens, HaCaT, read-out: IC50 of cell proliferation
Description: An experiment to check keratinocyte proliferation inhibitory activity of selected compounds of Formula-I was performed to establish its application in skin disorders related to keratinocyte hyper-proliferation. HaCaT cells, a human immortalized cell line derived from keratinocytes, representing hyper-proliferating keratinocytes was investigated for anti-proliferative potential of the selected compounds by MTT assay.

[2] = tested on: Human IL-10; test: IL-10 release from stimulated PBMCs, ELISA; format: cell-based; conditions: LPS 100 ng/mL, 18 hrs
Description: Fresh human blood from healthy volunteer was collected in anticoagulant (5 mM) ethylene diamine tetra acetic acid (EDTA) containing tubes. The growth medium used was RPMI-1640 medium (with 3% FBS) and incubated at 37° C. for 60 mins in a 5% CO2 incubator with vehicle used as 1% DMSO. The cell viability was checked at various time points using Alamar blue and fluorescence readings were taken at excitation of 544 nm and emission of 590 nm.
PBMCs were stimulated with different stimulators as follows: • a. Cells were exposed to stimulator LPS at 100 ng/mL for 18 hrs to stimulate TNF-α, IL-6, IFN-γ, IL10, IL-1β • b. Cells were exposed to stimulator IFN-γ+LPS at 100 ng/mL+1 μg/mL for 18 hrs to stimulate IL-12 • c. Cells were exposed to stimulator PMA+Ionomycin at 50 ng/mL+1 μg/mL for 18 hrs to stimulate IL-23, IL-22, IL-17A, IL-17F
After 18 hrs supernatants were collected and centrifuged to remove any cell debris and aliquots were used for ELISA.

[3] = tested on: HaCaT cells; test: Cell viability of HaCaT cells, Alamar blue; format: cell-based, human
Description: HaCaT cells were maintained in T-75 cm2 flask in Dulbecco's modified Eagle medium supplemented with FBS (10%), L-glutamine (2 mM), penicillin (100 ug/ml), streptomycin (100 ug/ml) at 37° C. in 5% CO2 incubator. Cell growth was maintained to 70-80% confluence for seeding and vehicle used was 1% DMSO. The cell viability was checked at various time points using Alamar blue and fluorescence readings were taken at excitation of 544 nm and emission of 590 nm.

O=C(Nc1ncc([N+](=O)[O-])s1)c1ccccc1O [Tizoxanide]
Cell proliferation (% of Control) ([1]; 0.01 μM, 24 h): 98.2 % of Control | Cell proliferation (% of Control) ([1]; 0.01 μM, 48 h): 109.5 % of Control | Cell proliferation (% of Control) ([1]; 0.01 μM, 72 h): 87.4 % of Control | Cell proliferation (% of Control) ([1]; 0.1 μM, 24 h): 93.9 % of Control | Cell proliferation (% of Control) ([1]; 0.1 μM, 48 h): 120.1 % of Control | Cell proliferation (% of Control) ([1]; 0.1 μM, 72 h): 82.7 % of Control | Cell proliferation (% of Control) ([1]; 0.5 μM, 24 h): 93.2 % of Control | Cell proliferation (% of Control) ([1]; 0.5 μM, 48 h): 108.9 % of Control | Cell proliferation (% of Control) ([1]; 0.5 μM, 72 h): 87.7 % of Control | Cell proliferation (% of Control) ([1]; 1 μM, 24 h): 99.7 % of Control | Cell proliferation (% of Control) ([1]; 1 μM, 48 h): 112.4 % of Control | Cell proliferation (% of Control) ([1]; 1 μM, 72 h): 81 % of Control | Cell proliferation (% of Control) ([1]; 5 μM, 24 h): 101.6 % of Control | Cell proliferation (% of Control) ([1]; 5 μM, 48 h): 89.3 % of Control | Cell proliferation (% of Control) ([1]; 5 μM, 72 h): 77.9 % of Control | Cell proliferation (% of Control) ([1]; 10 μM, 24 h): 94.9 % of Control | Cell proliferation (% of Control) ([1]; 10 μM, 48 h): 74.1 % of Control | Cell proliferation (% of Control) ([1]; 10 μM, 72 h): 64.3 % of Control | Cell proliferation (% of Control) ([1]; 50 μM, 24 h): 67.3 % of Control | Cell proliferation (% of Control) ([1]; 50 μM, 48 h): 59.9 % of Control | Cell proliferation (% of Control) ([1]; 50 μM, 72 h): 38 % of Control | Cell proliferation (% of Control) ([1]; 100 μM, 24 h): 53.5 % of Control | Cell proliferation (% of Control) ([1]; 100 μM, 48 h): 38.6 % of Control | Cell proliferation (% of Control) ([1]; 100 μM, 72 h): 22.8 % of Control | IC50 ([1]; 48 h): 59.9 µM | IC50 ([1]; 72 h): 22.4 µM | Human IL-10 concentration ([2]; 1 μM): 1591 pg/mL | Human IL-10 concentration ([2]; 10 μM): 493 pg/mL | Human IL-10 concentration ([2]; 25 μM): 76 pg/mL | Human IL-10 concentration ([2]; 50 μM): 42 pg/mL | % Viability (±S.E.M.) ([3]; 0.1 μM, 24 hrs): 76 ± 6% | % Viability (±S.E.M.) ([3]; 0.1 μM, 48 hrs): 114 ± 2% | % Viability (±S.E.M.) ([3]; 0.1 μM, 72 hrs): 112 ± 6% | % Viability (±S.E.M.) ([3]; 1 μM, 24 hrs): 74 ± 6% | % Viability (±S.E.M.) ([3]; 1 μM, 48 hrs): 91 ± 5% | % Viability (±S.E.M.) ([3]; 1 μM, 72 hrs): 91 ± 2% | % Viability (±S.E.M.) ([3]; 10 μM, 24 hrs): 34 ± 1% | % Viability (±S.E.M.) ([3]; 10 μM, 48 hrs): 35 ± 0% | % Viability (±S.E.M.) ([3]; 10 μM, 72 hrs): 43 ± 1% | % Viability (±S.E.M.) ([3]; 50 μM, 24 hrs): 24 ± 1% | % Viability (±S.E.M.) ([3]; 50 μM, 48 hrs): 20 ± 0% | % Viability (±S.E.M.) ([3]; 50 μM, 72 hrs): 25 ± 0% | % Viability (±S.E.M.) ([3]; 100 μM, 24 hrs): 20 ± 0%
